Experiment in all cases: NCI-60 cell line screen, 48 h
In experiment [1] the test system is 786-0 renal.
In experiment [2] the test system is BT-549 breast.
The subject of experiment [3] is CCRF-CEM leukemia.
For experiment [4], the system named is HCC-2998 colon.
Experiment [5] relates to HT29 colon.
Experiment [6] has as its system RPMI-8226 leukemia.
Experiment [7] has as its system RXF 393 renal.
For experiment [8], the system named is SF-295 CNS.
Experiment [9] has as its system SK-MEL-2 melanoma.
Experiment [10] has as its system UO-31 renal.

Several values for one entry are separate records, joined by “and”; a condition that tells them apart may be missing. Equal entries are not always repeated.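 Where inhibition never reached the appropriate level, the endpoint shown equals the highest concentration tested. Otherwise, values were interpolated linearly from a five-concentration, 48-hour dose response in 96-well plates. GI50: concentration for 50% inhibition of growth. TGI: total growth inhibition.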

Turning to `COc1ccc2c(c1)N(CCO)C1=C(C(=O)OC1)C2c1cccc(Br)c1` (stereo not drawn), the GI50 in experiment [1] was 120 nM; in experiment [2] it was 305 nM; in experiment [3], 217 nM; in experiment [4] it was 0.184 µM; in [5] it was 42.9 nM; in [6] it was 184 nM. For the same molecule, the GI50 in experiment [7] was 48.2 nM; in experiment [8], 31.9 nM; in experiment [9], 59.5 nM; in experiment [10] it was 77.6 nM. Further, the TGI in experiment [1] is 41.4 µM; in experiment [2], 34 µM; in experiment [3] it was greater than 100 µM; in [4], 15.7 µM; in experiment [5] it was 0.387 µM; in experiment [6], 28.4 µM. Also, the TGI was 71 µM in experiment [7], 1.52 µM in experiment [8], 3.24 µM in experiment [9] and greater than 85.3 µM in experiment [10].

As to `COC(=O)C12OCC34C(CC5C(C)=CC(=O)C(O)C5(C)C3C(O)C1O)OC(=O)C(OC(=O)CC(C)C)C24` (stereo not drawn), the GI50 in experiment [1] is 22.3 nM; in experiment [3], < 50.3 nM and 50 nM; in experiment [4], less than 0.0281 µM; in experiment [5], 58.8 nM; in experiment [6] it was less than 28.9 nM; in experiment [7] it was 42.7 nM and 50 nM. Besides, the GI50 in experiment [8] is 77 nM; in [9] it was 56.2 nM and 316 nM; in experiment [10], 256 nM and 63.7 nM. Moreover, the TGI is 0.107 µM and 0.207 µM in experiment [1]; 0.00549 µM in [2].

As to `Cc1ccc(S(=O)(=O)N2C/C(=C\c3cc(F)cc(F)c3)C(=O)/C(=C/c3cc(F)cc(F)c3)C2)cc1`, the GI50 in experiment [1] was 492 nM; in experiment [2], 286 nM; in [3], 74.8 nM; in experiment [4] it was 0.632 µM; in experiment [5] it was 215 nM; in experiment [6], 36.2 nM. Moreover, the GI50 was 535 nM in experiment [7], 291 nM in experiment [8], 972 nM in [9] and 481 nM in experiment [10]. The TGI came to 1.66 µM in [1]; 0.709 µM in experiment [2]; 0.951 µM in experiment [3]; 1.97 µM in [4]; 0.544 µM in experiment [5]; 0.254 µM in experiment [6]. Besides, the TGI in experiment [7] was 1.82 µM; in experiment [8] it was 1.06 µM; in experiment [9], 2.84 µM; in experiment [10], 1.08 µM.

For `COc1ccc2cc(C(=O)/C=C/c3ccccc3OC)ccc2c1`, the GI50 in [1] is 5590 nM; in [2] it was 4550 nM; in experiment [3], 1160 nM; in experiment [4], 5.92 µM; in [5] it was 1670 nM; in experiment [6], 1650 nM. The GI50 in experiment [7] is 2540 nM; in [8] it was 1590 nM; in experiment [9], 10300 nM; in [10] it was 5930 nM. In addition, the TGI in experiment [1] was 21.5 µM; in [2], 24.6 µM; in experiment [3], 7.52 µM; in experiment [4] it was 13 µM; in [5] it was greater than 45.5 µM; in experiment [6] it was 10.6 µM. Further, the TGI in experiment [7] came to 7.63 µM; in [8], 7.2 µM; in experiment [9], 35.2 µM; in [10], 18.8 µM.

`O=C(O)C#Cc1ccc([N+](=O)[O-])cc1`: the TGI in experiment [1], in experiment [2], in experiment [3], in [4], in experiment [5] and in [6] was greater than 100 µM each time. Also, the TGI in experiment [7], in experiment [8], in experiment [9] and in experiment [10] was greater than 100 µM each time.

Turning to `O=C(Nc1cccc2ccccc12)c1cc2ccccc2cc1O`, the GI50 was 3430 nM in [1]; 3600 nM in experiment [2]; 2910 nM in [3]; 3.5 µM in experiment [4]; 3550 nM in experiment [5]; 1410 nM in [6]. For the same molecule, the GI50 in experiment [7] is 2710 nM; in experiment [8], 1830 nM; in experiment [9] it was 2140 nM; in [10] it was 1220 nM. In addition, the TGI in [1] is 17.2 µM; in experiment [2], 16.4 µM; in [3] it was 12.1 µM; in experiment [4], 13.3 µM; in experiment [5] it was 12.4 µM; in experiment [6], 9.22 µM. In addition, the TGI amounted to 6.68 µM in experiment [7], 4.32 µM in [8], 4.69 µM in [9] and 4.95 µM in experiment [10].

As to `CCNCCNc1cc(C2CCCC2)c(C#N)c2nc3ccccc3n12`, the GI50 is 2690 nM in experiment [1]; 2450 nM in experiment [2]; 2460 nM in experiment [3]; 3.48 µM in experiment [4]; 2370 nM in experiment [5]; 2690 nM in experiment [6]. Besides, the GI50 in [7] is 1810 nM; in [8], 1700 nM; in experiment [9] it was 3910 nM; in experiment [10] it was 1670 nM. The TGI turned out to be 9.79 µM in experiment [1]; 5.84 µM in experiment [2]; 7.75 µM in experiment [3]; 15.3 µM in experiment [4]; 5.98 µM in experiment [5]; 7.35 µM in experiment [6]. Besides, the TGI in experiment [7] came out at 4 µM; in experiment [8] it was 3.46 µM; in [9], 16.1 µM; in experiment [10], 3.18 µM.

Regarding `O=C(Nc1ncc(Cc2ccc(Cl)cc2)s1)c1ccc2c(c1)OCCO2`, the GI50 is 72.8 nM in experiment [1]; 207 nM in experiment [2]; 63.9 nM in experiment [3]; 0.223 µM in experiment [4]; 171 nM in [5]; 52.6 nM in experiment [6]. In addition, the GI50 in experiment [7] is 32.6 nM; in experiment [8] it was 42.4 nM; in experiment [9], 343 nM; in experiment [10], 83.4 nM. For the same molecule, the TGI is greater than 100 µM in experiment [1]; greater than 83.4 µM in experiment [2]; greater than 100 µM in [3]; 20.3 µM in experiment [4]; greater than 43.4 µM in experiment [5]; greater than 100 µM in [6]. Moreover, the TGI is 0.567 µM in [7], 2.02 µM in [8], greater than 69.4 µM in experiment [9] and greater than 100 µM in experiment [10].

For `COc1cc2c3c(n(CCCN4CCOCC4)c(=O)c2cc1OC)-c1cc2c(cc1C3=O)OCO2`, the GI50 in [1] was 689 nM; in experiment [2], 12600 nM; in experiment [3] it was 93.4 nM; in [4], 10.7 µM; in [5] it was 5620 nM; in [6], 608 nM. Further, the GI50 is 137 nM in experiment [8], greater than 100000 nM in experiment [9] and 5870 nM in experiment [10]. The TGI in experiment [1] is 20.3 µM; in [2], greater than 100 µM; in experiment [3], 3.34 µM; in experiment [4], 65.4 µM; in experiment [5] it was greater than 67 µM; in experiment [6], 16.8 µM. Moreover, the TGI in experiment [7] is greater than 66.6 µM; in [8], greater than 38.8 µM; in [9] it was greater than 100 µM; in [10], greater than 100 µM.

On to `Cc1cc(NC(=O)C(=O)Cc2nc3ccccc3s2)ccc1Cl`, for which the TGI in experiment [1], in experiment [2], in [3], in experiment [4], in experiment [5] and in experiment [6] was greater than 100 µM in each case. Further, the TGI in [7], in experiment [8], in experiment [9] and in experiment [10] was greater than 100 µM in each case.

As for `Cc1cc(Cl)ccc1Nc1nc(C(F)(F)F)ccc1C(=O)N/N=C/c1c(Cl)cccc1Cl`, the GI50 in experiment [1] is 292 nM; in experiment [2], 194 nM; in [3], 107 nM; in experiment [4], 0.459 µM; in experiment [5] it was 443 nM; in experiment [6] it was 194 nM. Besides, the GI50 in experiment [7] is 2040 nM; in [8] it was 74.1 nM; in [9], 272 nM; in experiment [10], 301 nM. For the same molecule, the TGI was 1.08 µM in [1]; 0.675 µM in experiment [2]; greater than 100 µM in [3]; greater than 100 µM in experiment [4]; greater than 100 µM in experiment [5]; greater than 100 µM in experiment [7]. Also, the TGI was found to be 0.376 µM in experiment [8] and 1.33 µM in [9].

Regarding `OCCCNC(=S)Nc1ccc(-c2nc3ccccc3s2)cc1`, the GI50 in experiment [1] is 22800 nM; in [2] it was 25000 nM; in [3] it was 16900 nM; in [4], 13.7 µM; in experiment [5], 32200 nM; in experiment [6], 26500 nM. For the same molecule, the GI50 in [7] was 10400 nM; in experiment [8] it was 14800 nM; in experiment [9] it was 31600 nM; in experiment [10], 12000 nM. Moreover, the TGI in [1] is 55.2 µM; in experiment [2], 82.9 µM; in [3] it was greater than 100 µM; in experiment [4], 26.8 µM; in [5], greater than 100 µM; in experiment [6], greater than 100 µM. Further, the TGI is 52.4 µM in experiment [7], 45 µM in experiment [8], greater than 100 µM in experiment [9] and 60.7 µM in experiment [10].

The record behind these values is PubChem BioAssay (NCI).
